What was measured:
MOLT-4 [1] = test: Growth inhibition of human MOLT4 cells assessed as cell growth at 10 uM after 48 hrs by sulforhodamine B assay; type: functional; conditions: MOLT-4, 48 h, read-out: Activity
IGROV-1 = test: Growth inhibition of human IGROV1 cells assessed as cell growth at 10 uM after 48 hrs by sulforhodamine B assay; type: functional; conditions: IGROV-1, 48 h, read-out: Activity
MDA-MB-435 = test: Growth inhibition of human MDA-MB-435 cells assessed as cell growth at 10 uM after 48 hrs by sulforhodamine B assay; type: functional; conditions: MDA-MB-435, 48 h, read-out: Activity
DU-145 = test: Growth inhibition of human DU145 cells after 48 hrs by sulforhodamine B assay; type: functional; conditions: DU-145, 48 h
RXF 393 = test: Growth inhibition of human RXF393 cells after 48 hrs by sulforhodamine B assay; type: functional; conditions: RXF 393, 48 h
SF-268 = test: Growth inhibition of human SF268 cells assessed as cell growth at 10 uM after 48 hrs by sulforhodamine B assay; type: functional; conditions: SF-268, 48 h, read-out: Activity
NCI-H322M = test: Growth inhibition of human NCI-H322M cells assessed as cell growth at 10 uM after 48 hrs by sulforhodamine B assay; type: functional; conditions: read-out: Activity
HCT-15 [2] = test: Growth inhibition of human HCT15 cells after 48 hrs by sulforhodamine B assay; type: functional; conditions: HCT-15, 48 h
HCT-15 [3] = test: Growth inhibition of human HCT15 cells assessed as cell growth at 10 uM after 48 hrs by sulforhodamine B assay; type: functional; conditions: HCT-15, 48 h, read-out: Activity
HCT-116 = test: Growth inhibition of human HCT116 cells after 48 hrs by sulforhodamine B assay; type: functional; conditions: HCT-116, 48 h
OVCAR-4 = test: Growth inhibition of human OVCAR4 cells after 48 hrs by sulforhodamine B assay; type: functional; conditions: OVCAR-4, 48 h
MDA-MB-468 = test: Growth inhibition of human MDA-MB-468 cells assessed as cell growth at 10 uM after 48 hrs by sulforhodamine B assay; type: functional; conditions: MDA-MB-468, 48 h, read-out: Activity
SK-MEL-5 [4] = test: Growth inhibition of human SK-MEL-5 cells after 48 hrs by sulforhodamine B assay; type: functional; conditions: SK-MEL-5, 48 h
T47D = test: Growth inhibition of human T47D cells assessed as cell growth at 10 uM after 48 hrs by sulforhodamine B assay; type: functional; conditions: read-out: Activity
NCI-H460 = test: Growth inhibition of human NCI-H460 cells assessed as cell growth at 10 uM after 48 hrs by sulforhodamine B assay; type: functional; conditions: NCI-H460, 48 h, read-out: Activity
SK-MEL-5 [5] = test: Growth inhibition of human SK-MEL-5 cells assessed as cell growth at 10 uM after 48 hrs by sulforhodamine B assay; type: functional; conditions: SK-MEL-5, 48 h, read-out: Activity
NCI-H23 = test: Growth inhibition of human NCI-H23 cells after 48 hrs by sulforhodamine B assay; type: functional; conditions: NCI-H23, 48 h
OVCAR-3 = test: Growth inhibition of human OVCAR3 cells assessed as cell growth at 10 uM after 48 hrs by sulforhodamine B assay; type: functional; conditions: OVCAR-3, 48 h, read-out: Activity
TK-10 = test: Growth inhibition of human TK10 cells assessed as cell growth at 10 uM after 48 hrs by sulforhodamine B assay; type: functional; conditions: TK-10, 48 h, read-out: Activity
KM12 = test: Growth inhibition of human KM12 cells after 48 hrs by sulforhodamine B assay; type: functional, cell-based; conditions: KM12, 48 h
OVCAR-5 = test: Growth inhibition of human OVCAR5 cells after 48 hrs by sulforhodamine B assay; type: functional; conditions: OVCAR-5, 48 h
SF-539 = test: Growth inhibition of human SF539 cells assessed as cell growth at 10 uM after 48 hrs by sulforhodamine B assay; type: functional; conditions: SF-539, 48 h, read-out: Activity
M14 = test: Growth inhibition of human M14 cells after 48 hrs by sulforhodamine B assay; type: functional; conditions: M14, 48 h
SNB-19 = test: Growth inhibition of human SNB19 cells after 48 hrs by sulforhodamine B assay; type: functional; conditions: SNB-19, 48 h
UO-31 = test: Growth inhibition of human UO31 cells after 48 hrs by sulforhodamine B assay; type: functional; conditions: UO-31, 48 h
CCRF-CEM = test: Growth inhibition of human CCRF-CEM cells assessed as cell growth at 10 uM after 48 hrs by sulforhodamine B assay; type: functional; conditions: read-out: Activity
RPMI-8226 = test: Growth inhibition of human RPMI8226 cells assessed as cell growth at 10 uM after 48 hrs by sulforhodamine B assay; type: functional; conditions: RPMI-8226, 48 h, read-out: Activity
SR = test: Growth inhibition of human SR cells after 48 hrs by sulforhodamine B assay; type: functional
PC-3 = test: Growth inhibition of human PC3 cells after 48 hrs by sulforhodamine B assay; type: functional, cell-based; conditions: PC-3, 48 h
MOLT-4 [6] = test: Growth inhibition of human MOLT4 cells after 48 hrs by sulforhodamine B assay; type: functional; conditions: MOLT-4, 48 h
SN12C = test: Growth inhibition of human SN12C cells after 48 hrs by sulforhodamine B assay; type: functional
UACC-257 = test: Growth inhibition of human UACC257 cells after 48 hrs by sulforhodamine B assay; type: functional; conditions: UACC-257, 48 h
LOX IMVI = test: Growth inhibition of human LOXIMVI cells assessed as cell growth at 10 uM after 48 hrs by sulforhodamine B assay; type: functional; conditions: read-out: Activity
[7] = Growth inhibition of human Hs 578T cells assessed as cell growth at 10 uM after 48 hrs by sulforhodamine B assay; type: functional; conditions: read-out: Activity
[8] = read-out: LC50 (the source's name)

For COc1cc(-c2nn(-c3cccc(NC(=O)c4ccccc4)c3)cc2-c2ccncc2)ccc1Cl, the growth at 10 µM (MOLT-4 [1]) was 0.66%, the growth at 10 µM (IGROV-1) was 47.4% and the growth at 10 µM (MDA-MB-435) was -57.9%. The GI50 (DU-145) was 0.78 µM, the LC50 (DU-145) was greater than 100 µM and the TGI (DU-145) was 54.7 µM. For the same compound, the GI50 (RXF 393) was 0.646 µM, the LC50 (concentration killing 50% of cells) (RXF 393) was greater than 100 µM and the TGI (RXF 393) was 6.34 µM. For the same compound, the growth at 10 µM (SF-268) was 18.7%, the growth at 10 µM (NCI-H322M) was 52.3% and the GI50 (HCT-15 [2]) was 0.654 µM. The LC50 (HCT-15 [2]) was greater than 100 µM, the TGI (HCT-15 [2]) was greater than 100 µM and the growth at 10 µM (HCT-15 [3]) was 19.2%. It also gave a GI50 (HCT-116) of 0.5 µM, a TGI (HCT-116) greater than 100 µM and a CC50 (HCT-116; [8]) greater than 100 µM. It also gave a GI50 (OVCAR-4) of 1.17 µM, an LC50 (concentration killing 50% of cells) (OVCAR-4) greater than 100 µM and a TGI (OVCAR-4) greater than 100 µM. The growth at 10 µM (MDA-MB-468) was -19.7%, the GI50 (SK-MEL-5 [4]) was 0.319 µM and the LC50 (concentration killing 50% of cells) (SK-MEL-5 [4]) was 7.1 µM. The TGI (SK-MEL-5 [4]) was 1.38 µM, the growth at 10 µM (T47D) was 21.8% and the growth at 10 µM (NCI-H460) was 2.74%. It also gave a growth at 10 µM (SK-MEL-5 [5]) of -49.4%, a GI50 (NCI-H23) of 2.02 µM and an LC50 (NCI-H23) greater than 100 µM. The TGI (NCI-H23) was greater than 100 µM, the growth at 10 µM (OVCAR-3) was 0.02% and the growth at 10 µM (TK-10) was 31%. For the same compound, the GI50 (KM12) was 0.556 µM, the IC50 (KM12) was 0.56 µM and the TGI (KM12) was greater than 100 µM. It also gave a CC50 (KM12; [8]) greater than 100 µM, a GI50 (OVCAR-5) of 15 µM and an LC50 (concentration killing 50% of cells) (OVCAR-5) greater than 100 µM. It also gave a TGI (OVCAR-5) greater than 100 µM, a growth at 10 µM (SF-539) of -15% and a GI50 (M14) of 0.575 µM. The LC50 (concentration killing 50% of cells) (M14) was greater than 100 µM, the TGI (M14) was 12.9 µM and the GI50 (SNB-19) was 0.86 µM. For the same compound, the LC50 (concentration killing 50% of cells) (SNB-19) was greater than 100 µM, the TGI (SNB-19) was greater than 100 µM and the GI50 (UO-31) was 0.638 µM. It also gave a TGI (UO-31) greater than 100 µM, a CC50 (UO-31; [8]) greater than 100 µM and a growth at 10 µM (CCRF-CEM) of 2.06%. The growth at 10 µM (RPMI-8226) was 9.39%, the GI50 (SR) was 0.25 µM and the TGI (SR) was greater than 100 µM. The CC50 (SR; [8]) was greater than 100 µM, the GI50 (PC-3) was 0.426 µM and the IC50 (PC-3) was 0.43 µM. For the same compound, the TGI (PC-3) was greater than 100 µM, the CC50 (PC-3; [8]) was greater than 100 µM and the GI50 (MOLT-4 [6]) was 0.701 µM. For the same compound, the TGI (MOLT-4 [6]) was greater than 100 µM, the CC50 (MOLT-4 [6]; [8]) was greater than 100 µM and the GI50 (SN12C) was 2.95 µM. It also gave a TGI (SN12C) greater than 100 µM, a CC50 (SN12C; [8]) greater than 100 µM and a GI50 (UACC-257) of 0.859 µM. The TGI (UACC-257) was greater than 100 µM, the CC50 (UACC-257; [8]) was greater than 100 µM and the growth at 10 µM (LOX IMVI) was 17.4%. For the same compound, the growth at 10 µM [7] was -1.34%.

Source: ChEMBL document CHEMBL2440076, “New triarylpyrazoles as broad-spectrum anticancer agents: design, synthesis, and biological evaluation” (Eur J Med Chem, 2013)
